Source: patent US20050256132A1, “Use of ER selective NF-kB inhibitors for the treatment of sepsis” (priority 2003, published 2005)
Structures can show the parent of a compound that is named as a salt.

How the values were obtained:
ER/IL-6 = assay: Endothelial Cell ER/IL-6 Assay, IL-6 promoter luciferase (Table 2); assay type: cell-based, human; settings: Homo sapiens, HAECT1, ERα infected HAECT-1 cells, IL-1β; for Emax: read-out: IL6 luc % Efficacy; for IC50: read-out: IL6 luc IC50
Method: T-175 flasks of 100% confluent HAECT-1 cells (immortalized human aortic endothelial cells) were washed with 8 ml of HBSS (HEPES buffered saline solution) and infected for fours hours with 6 ml of a 1:10 dilution of Ad5-wt-hERα virus (an adenovirus transfection vector that mediates CMV promoter driven expression of human ERα) in phenol red free Endothelial Cell Basal medium (Clonetics, San Diego, Calif., Catalog # CC-3129) containing 0.25% bovine serum albumin (EDM-BSA). After four hours, cells were washed with EDM-BSA and incubated overnight in the same medium. Following overnight incubation, cells were washed with EDM-BSA and infected for 2 hours with 6 ml of a 1:10 dilution of Ad5-3x(NFκB).Luc virus (Adenovirus luciferase expression vector driven by three repeats of the MHC NFκb sites 5′ to the thymidine kinase promoter) in EDM-BSA. After two hours, cells were washed and incubated at 34° C. for one hour. Cells were then washed, trypsinized, counted, and resuspended in 95% FBS/5% dimethylsulfoxide at a concentration of […], frozen as 1 or 5 ml aliquots in cryo-vials and stored at −150° C. Control (no ER infection) cells were processed as above without Ad5-wt-hERα virus infection.
ERα infected HAECT-1 cells or control cells were thawed, diluted 42× in warm EBM-BSA, plated into 96-well plates at 0.1 ml/well and incubated for 4 hours at 34° C. Test compounds were added to the cells at 2× stocks in EBM-BSA containing 2 ng/ml IL-1β Ad6-IL-6(1250 bp).Luc virus and plates were returned to the incubator (34° C.). After […], cells were lysed with 50 μl of Promega Cell Culture Lysis reagenet for about 5 minutes at room temperature on a shaker. After lysing, 15 μl of lysate is transferred to luminometer plates for luciferase determination. Luciferase activity is evaluated using a Perkin Elmer Victor2 1420 multilabel counter. Creatine kinase was determined from the rate of increase in A340 following addition of 100 μl of CK assay reagent (Sigma catalog no. 47-10) to the remainder of the cell lysate.
For IC50 and EC50 calculations, mean IL-6, luciferase or CK values versus log10 of the compound concentration were fitted to a four parameter logistic equation. The IC50/EC50 value, ‘Hill slope,’ upper and lower limits of the curve were iteratively estimated.

Row | IC50 (ER/IL-6) | melting point | Structure (SMILES) | Emax (ER/IL-6)
1 | 268 nM | 136 to 137 °C | COC[C@@](C#N)(C(=O)N1CCN(c2ncccn2)CC1)[C@@H](c1ccccc1OC)c1cccc2ccccc12 [Example 211, (2R,3R)-2-(methoxymethyl)-3-(2-methoxyphenyl)-3-(1-naphthyl)-2-[(4-pyrimidin-2-ylpiperazin-1-yl)carbonyl]propanenitrile] | 78%
2 | 798 nM | 163 to 165 °C | COc1ccccc1C(c1ccnc2ccccc12)C(C)(C#N)C(=O)N1CCC(c2cccc(C(F)(F)F)c2)CC1 (centres unmarked) [Example 161, 3-(2-Methoxyphenyl)-2-methyl-3-quinolin-4-yl-2-({4-[3-(trifluoromethyl)phenyl]piperidin-1-yl}carbonyl)propanenitrile] | 122%
3 | 348 nM | 172 to 174 °C | COc1ccccc1[C@H](c1cccc2ccccc12)[C@@](C)(C#N)C(=O)N1CCc2[nH]c3ccc(F)cc3c2C1 [Example 189, (2S)-3-(8-fluoro-1,3,4,5-tetrahydro-2H-pyrido[4,3-b]indol-2-yl)-2-[(S)-(2-methoxyphenyl)(1-naphthyl)methyl]-2-methyl-3-oxopropanenitrile] | 103%
4 | 288 nM | 259 °C | COc1ccccc1[C@H](c1cccc2ccccc12)[C@@](C)(C#N)C(=O)N1CCC(c2cccc(C(F)(F)F)c2)C(O)C1 (stereo partly drawn) [Example 185, (2S)-3-{3-hydroxy-4-[3-(trifluoromethyl)phenyl]piperidin-1-yl}-2-[(S)-(2-methoxyphenyl)(1-naphthyl)methyl]-2-methyl-3-oxopropanenitrile] | 116%
5 | 6 nM | 166 to 170 °C | COc1ccccc1[C@H](c1cccc2ccccc12)[C@](C#N)(COCc1ccccc1)C(=O)OC(C)(C)C (relative stereo) [Example 154, tert-Butyl (2S*,3S*)-2-[(benzyloxy)methyl]-2-cyano-3-(2-methoxyphenyl)-3-(1-naphthyl)propanoate] | 87%
6 | 445 nM | 176 to 178 °C | COc1ccccc1[C@H](c1cccc2ccccc12)[C@@](C)(C#N)C(=O)N1CCC2(CC1)C(=O)NCN2c1ccccc1 [Example 184, (2S,3S)-3-(2-methoxyphenyl)-2-methyl-3-(1-naphthyl)-2-[(4-oxo-1-phenyl-1,3,8-triazaspiro[4.5]dec-8-yl)carbonyl]propanenitrile] | 88%
7 | 345 nM | 156 to 158 °C | COCCN1CCN(C(=O)C(C#N)(COC)C(c2ccccc2OC)c2cccc3ccccc23)CC1 (centres unmarked) [Example 206, 3-[4-(2-methoxyethyl)piperazin-1-yl]-2-(methoxymethyl)-2-[(2-methoxyphenyl)(1-naphthyl)methyl]-3-oxopropanenitrile] | 83%
8 | 710 nM | 134 to 135 °C | COc1ccccc1[C@H](c1cccc2ccccc12)[C@@](C)(C#N)C(=O)N1CCC(C(C)=O)(c2ccccc2)CC1 [Example 195, (2S)-3-(4-acetyl-4-phenylpiperidin-1-yl)-2-[(S)-(2-methoxyphenyl)(1-naphthyl)methyl]-2-methyl-3-oxopropanenitrile] | 74%
9 | 70 nM | 137 to 138 °C | COc1ccccc1[C@H](c1cccc2ccccc12)[C@@](C)(C#N)C(=O)N1CCN(C2CCCCC2)CC1 [Example 196, (2S)-3-(4-cyclohexylpiperazin-1-yl)-2-[(s)-(2-methoxyphenyl)(1-naphthyl)methyl]-2-methyl-3-oxopropanenitrile] | 142%
10 | 5.5 nM | 132.9 to 134.4 °C | COC(=O)[C@@](C#N)(COCc1ccccc1)[C@H](c1ccccc1OC)c1cccc2ccccc12 (relative stereo) [Example 146, Methyl (2S*,3S*)-2-[(benzyloxy)methyl]-2-cyano-3-(2-methoxyphenyl)-3-(1-naphthyl)propanoate] | 135%
11 | 113 nM | 212 to 213 °C | COc1ccccc1[C@H](c1cccc2ccccc12)[C@@](C)(C#N)C(=O)N1CCc2c([nH]c3ccccc23)C1 [Example 190, (2S,3S)-3-(2-methoxyphenyl)-2-methyl-3-(1-naphthyl)-2-(1,3,4,9-tetrahydro-2H-beta-carbolin-2-ylcarbonyl)propanenitrile] | 
12 |  | 78 to 80 °C | COc1ccccc1[C@H](c1cccc2ccccc12)[C@@](C)(C#N)C(=O)N1CCN(CCCN(C)C)CC1 [Example 202, (2S)-3-{4-[3-(dimethylamino)propyl]piperazin-1-yl}-2-[(S)-(2-methoxyphenyl)(1-naphthyl)methyl]-2-methyl-3-oxopropanenitrile] | 43%
13 | 65 nM | 136 to 139 °C | COc1ccccc1[C@H](c1cccc2ccccc12)[C@@](C)(C#N)C(=O)N1CC=C(c2ccc(Br)cc2)CC1 [Example 135, (2S)-3-[4-(4-bromophenyl)-3,6-dihydropyridin-1(2H)-yl]-2-[(S)-(2-methoxyphenyl)(1-naphthyl)methyl]-2-methyl-3-oxopropanenitrile] | 119%
14 | 39 nM | 144 °C | COCCN1CCN(C(=O)[C@](C)(C#N)[C@H](c2ccccc2OC)c2cccc3ccccc23)CC1 [Example 197, (2S)-3-[4-(2-methoxyethyl)piperazin-1-yl]-2-[(S)-(2-methoxyphenyl)(1-naphthyl)methyl]-2-methyl-3-oxopropanenitrile] | 46%
15 |  | 160 to 164.4 °C | COC(=O)[C@@](C#N)(Cc1cccnc1)[C@H](c1ccccc1OC)c1cccc2ccccc12 (relative stereo) [Example 145, Methyl (2S*,3S*)-2-cyano-3-(2-methoxyphenyl)-3-(1-naphthyl)-2-(pyridin-3-ylmethyl)propanoate] | 102%
16 | 113 nM | 160 to 165 °C | COc1ccccc1[C@H](c1cccc2ccccc12)[C@@](C)(C#N)C(=O)N1CCC(C2CCCC(C(F)(F)F)C2)CC1 (stereo partly drawn) [Example 139, (2S,3S)-3-(2-methoxyphenyl)-2-methyl-3-(1-naphthyl)-2-({4-[3-(trifluoromethyl)cyclohexyl]piperidin-1-yl}carbonyl)propanenitrile] | 98%
17 | 206 nM | 142 to 144 °C | COc1ccccc1[C@H](c1cccc2ccccc12)[C@@](C)(C#N)C(=O)N1CCN(c2ccncc2)CC1 [Example 133, (2S,3S)-3-(2-methoxyphenyl)-2-methyl-3-(1-naphthyl)-2-[(4-pyridin-4-ylpiperazin-1-yl)carbonyl]propanenitrile] | 81%
18 | 69 nM | 228 to 230 °C (dec.) | COC(=O)[C@@](C#N)(Cc1ccncc1)[C@H](c1ccccc1OC)c1cccc2ccccc12 (relative stereo) [Example 142, Methyl (2S*,3S*)-2-cyano-3-(2-methoxyphenyl)-3-(1-naphthyl)-2-(pyridin-4-ylmethyl)propanoate] | 103%
19 |  | 174 °C (dec.) | CCN(CC)CC[C@](C#N)(C(=O)OC)[C@H](c1ccccc1OC)c1cccc2ccccc12 (relative stereo) (as salt: HCl) [Example 148, Methyl (2S*)-2-cyano-4-(diethylamino)-2-[(S*)-(2-methoxyphenyl)(1-naphthyl)methyl]butanoate] | 
20 |  | 145 to 148 °C | COc1ccccc1[C@H](c1cccc2ccccc12)[C@@](C)(C#N)C(=O)N1CCN(c2ccccc2F)CC1 | 
21 |  | 193 °C (dec.) | COC(=O)[C@@](C#N)(Cc1cccnc1)[C@H](c1ccccc1OC)c1cccc2ccccc12 [Example 156, Methyl (2S,3S)-2-cyano-3-(2-methoxyphenyl)-3-(1-naphthyl)-2-(pyridin-3-ylmethyl)propanoate] | 73%
22 |  | 147 to 148 °C | COc1cccc(N2CCN(C(=O)[C@](C)(C#N)[C@H](c3ccccc3OC)c3cccc4ccccc34)CC2)c1 | 
23 |  | 188 to 190 °C | COc1ccccc1[C@H](c1cccc2ccccc12)[C@@](C)(C#N)C(=O)N1CCN(c2cccc3c2CCC3)CC1 | 
24 |  | 186 to 188 °C | COc1cc(OC)cc(N2CCN(C(=O)[C@](C)(C#N)[C@H](c3ccccc3OC)c3cccc4ccccc34)CC2)c1 | 
25 |  | 176 to 178 °C | COC[C@](C#N)(C(=O)OC)[C@H](c1ccccc1OC)c1cccc2ccccc12 [Example 150, Methyl (2S,3S)-2-cyano-2-(methoxymethyl)-3-(2-methoxyphenyl)-3-(1-naphthyl)propanoate] | 
